Drawing on patent US10421761B2, “Compounds for kinase modulation, and indications therefor” (Plexxikon Inc., priority 2013, dated 2019), this text covers EC50 and IC50 for nine compounds.

Like-named read-outs stand apart in the source and are kept apart here.

The subject of test [1] is B9 (HRAS Q61L) cell line. Put plainly: B9 P-ERK cell activation assay (AlphaScreen). The test is classed as cell-based, mouse. Conditions: Mus musculus, P-ERK cell activation, B9, read-out: Cell activity (EC50 μM) B9_pERK. The essentials:
(§1)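 Phospho-ERK1/2 (Thr202/Tyr204) in lysates quantified via AlphaScreen bead proximity, after one-hour, 37° C. exposure of cells to eight compound concentrations. Lines: IPC-298 human melanoma with activated NRAS; B9 mouse squamous carcinoma with activated HRAS.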

The target in test [2] is T1, BRAF V600E (Homo sapiens, UniProt P15056, V600E).
T1 construct: purchased Upstate Biotechnology
Put plainly: BRAF V600E biochemical kinase activity assay (AlphaScreen, biotin-MEK1 substrate). Conditions: BRAF V600E biochemical inhibitory activity.

Test [3] has as its system IPC-298 (NRAS Q61L) cell line. Put plainly: IPC-298 P-ERK cell activation assay (AlphaScreen). The test is classed as cell-based, human. Conditions: Homo sapiens; P-ERK cell activation, IPC-298; numeric bounds; read-out: Cell activity (EC50 μM) IPC-298_P-ERK. An outline of the steps:
as §1

The test system of test [4] is A375 (BRAF V600E) cell line. Put plainly: A375 P-ERK inhibition assay (AlphaScreen). The test is classed as cell-based, human. Conditions: Homo sapiens, A-375; A375_P-ERK. The essentials:
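Phospho-ERK1/2 (Thr202/Tyr204) detected in lysates by AlphaScreen proximity signal, pairing a total-ERK antibody with a phospho-specific antibody. Before lysis, A375 cells received compound as an 8-point titration for one hour at 37° C.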

T1 sequence (P15056 whole entry V600E): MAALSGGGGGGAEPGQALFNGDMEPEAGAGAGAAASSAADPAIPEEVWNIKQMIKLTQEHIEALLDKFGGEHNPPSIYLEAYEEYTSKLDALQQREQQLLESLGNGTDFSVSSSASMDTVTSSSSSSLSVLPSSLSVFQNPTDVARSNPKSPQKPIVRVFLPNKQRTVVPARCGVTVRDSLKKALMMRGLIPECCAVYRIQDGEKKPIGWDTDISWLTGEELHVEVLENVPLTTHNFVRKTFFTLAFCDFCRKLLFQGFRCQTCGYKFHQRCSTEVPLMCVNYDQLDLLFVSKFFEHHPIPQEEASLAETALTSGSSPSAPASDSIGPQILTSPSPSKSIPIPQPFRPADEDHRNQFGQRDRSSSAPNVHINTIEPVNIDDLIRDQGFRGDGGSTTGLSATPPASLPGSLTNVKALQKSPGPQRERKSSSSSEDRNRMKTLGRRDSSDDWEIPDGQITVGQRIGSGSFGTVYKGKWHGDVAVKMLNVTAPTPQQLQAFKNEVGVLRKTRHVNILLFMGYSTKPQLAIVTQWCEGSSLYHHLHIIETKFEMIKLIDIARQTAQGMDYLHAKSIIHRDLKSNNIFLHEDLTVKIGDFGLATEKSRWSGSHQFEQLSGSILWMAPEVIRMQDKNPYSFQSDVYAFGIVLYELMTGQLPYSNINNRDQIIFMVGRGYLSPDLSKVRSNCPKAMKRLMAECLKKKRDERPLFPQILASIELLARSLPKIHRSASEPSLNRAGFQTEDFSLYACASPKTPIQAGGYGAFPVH

Consider `O=C(c1c(F)ccc(NS(=O)(=O)N2CCOCC2)c1F)c1c[nH]c2ncnc(NCC3CC3)c12` [P-2054, N-[3-[4-(cyclopropylmethylamino)-7H-pyrrolo[2,3-d]pyrimidine-5-carbonyl]-2,4-difluoro-phenyl]morpholine-4-sulfonamide], for which the EC50 in test [1] (numeric bounds) and in test [3] was greater than 10 µM throughout. In addition, the IC50 in test [2] and in test [4] was 0.0001 to 1 µM each time.

For the compound `Cc1cc2c(-c3sc(C(C)(C)C)nc3-c3cccc(NS(=O)(=O)N4CCCC4)c3F)ccnc2[nH]1` [P-2121, N-[3-[2-tert-butyl-5-(2-methyl-1H-pyrrolo[2,3-b]pyridin-4-yl)thiazol-4-yl]-2-fluoro-phenyl]pyrrolidine-1-sulfonamide], the EC50 in test [1] (numeric bounds) and in test [3] was greater than 10 µM throughout. Besides, the IC50 in test [2] and in test [4] was 0.0001 to 1 µM throughout.

Turning to `CCN(C)S(=O)(=O)Nc1ccc(F)c(C(=O)c2c[nH]c3ncnc(NC4CCOCC4)c23)c1F` [P-2119, 5-[3-[[ethyl(methyl)sulfamoyl]amino]-2,6-difluoro-benzoyl]-4-(tetrahydropyran-4-ylamino)-7H-pyrrolo[2,3-d]pyrimidine], the EC50 in test [1] (numeric bounds) and in test [3] was greater than 10 µM throughout. Further, the IC50 in test [2] and in test [4] was 0.0001 to 1 µM in each case.

`O=C(c1cccc(NS(=O)(=O)N2CCCC2)c1F)c1c[nH]c2ncnc(NC3CCOCC3)c12` [P-2083, N-[2-fluoro-3-[4-(tetrahydropyran-4-ylamino)-7H-pyrrolo[2,3-d]pyrimidine-5-carbonyl]phenyl]pyrrolidine-1-sulfonamide]: the concentration giving a half-maximal response (EC50) in test [1] (numeric bounds) and in test [3] was greater than 10 µM throughout. Moreover, the IC50 in test [2] and in test [4] was 0.0001 to 1 µM each time.

`CC(C)Nc1ncnc2[nH]cc(C(=O)c3c(F)ccc(NS(=O)(=O)C4CCCCC4)c3F)c12` [P-2039, N-[2,4-difluoro-3-[4-(isopropylamino)-7H-pyrrolo[2,3-d]pyrimidine-5-carbonyl]phenyl]cyclohexanesulfonamide]: the EC50 in test [1] (numeric bounds) and in test [3] was greater than 10 µM throughout. For the same compound, the IC50 in test [2] and in test [4] was 0.0001 to 1 µM each time.

Consider `CN(C)CC(C)(C)CNc1ncnc2[nH]cc(C(=O)c3cccc(NS(=O)(=O)N4CCCC4)c3F)c12` [P-2113, N-[3-[4-[[3-(dimethylamino)-2,2-dimethyl-propyl]amino]-7H-pyrrolo[2,3-d]pyrimidine-5-carbonyl]-2-fluoro-phenyl]pyrrolidine-1-sulfonamide], for which the EC50 in test [1] (numeric bounds) and in test [3] was greater than 10 µM each time. In addition, the IC50 in test [2] and in test [4] was 0.0001 to 1 µM throughout.

Consider `COC(=O)N[C@@H](C)CNc1nccc(-c2nn(C(C)C)cc2-c2cc(Cl)cc(NS(=O)(=O)N(C)C)c2F)n1` [P-2166, methyl N-[(1S)-2-[[4-[4-[5-chloro-3-(dimethylsulfamoylamino)-2-fluoro-phenyl]-1-isopropyl-pyrazol-3-yl]pyrimidin-2-yl]amino]-1-methyl-ethyl]carbamate], for which the EC50 in test [1] (class symbols) is 0.0001 to 1 µM; in test [3], greater than 10 µM. For the same compound, the IC50 in test [2] and in test [4] was 0.0001 to 1 µM each time.

Regarding `COCCNc1ncnc2[nH]cc(C(=O)c3cccc(NS(=O)(=O)N4CCCC4)c3F)c12` [P-2104, N-[2-fluoro-3-[4-(2-methoxyethylamino)-7H-pyrrolo[2,3-d]pyrimidine-5-carbonyl]phenyl]pyrrolidine-1-sulfonamide], the EC50 in test [1] (numeric bounds) and in test [3] was greater than 10 µM throughout. For the same compound, the IC50 in test [2] and in test [4] was 0.0001 to 1 µM each time.

Take `CC(C)Nc1ncnc2[nH]cc(C(=O)c3c(F)ccc(NS(=O)(=O)C(C)C)c3F)c12` [P-2037, N-[2,4-difluoro-3-[4-(isopropylamino)-7H-pyrrolo[2,3-d]pyrimidine-5-carbonyl]phenyl]propane-2-sulfonamide]: the EC50 in test [1] (numeric bounds) and in test [3] was greater than 10 µM each time. For the same compound, the IC50 in test [2] and in test [4] was 0.0001 to 1 µM each time.
